ChEMBL document CHEMBL2440076, “New triarylpyrazoles as broad-spectrum anticancer agents: design, synthesis, and biological evaluation” (Eur J Med Chem, 2013)

Tests used:
Format in all cases: functional
SNB-75 [1] = assay: Growth inhibition of human SNB75 cells assessed as cell growth at 5X10'-6 M after 48 hrs by sulforhodamine B assay; conditions: SNB-75, 48 h, read-out: Activity
UACC-62 [2] = assay: Growth inhibition of human UACC62 cells assessed as cell growth at 3X10'-9 M after 48 hrs by sulforhodamine B assay; conditions: UACC-62, 48 h, read-out: Activity
SR = assay: Growth inhibition of human SR cells assessed as cell growth at 3X10'-7 M after 48 hrs by sulforhodamine B assay; conditions: read-out: Activity
[3] = Growth inhibition of human NCI-ADR-RES cells assessed as cell growth at 3X10'-8 M after 48 hrs by sulforhodamine B assay; conditions: read-out: Activity
SF-268 [4] = assay: Growth inhibition of human SF268 cells assessed as cell growth at 3X10'-9 M after 48 hrs by sulforhodamine B assay; conditions: SF-268, 48 h, read-out: Activity
UACC-62 [5] = assay: Growth inhibition of human UACC62 cells assessed as cell growth at 3X10'-6 M after 48 hrs by sulforhodamine B assay; conditions: UACC-62, 48 h, read-out: Activity
OVCAR-8 [6] = assay: Growth inhibition of human OVCAR8 cells assessed as cell growth at 3X10'-5 M after 48 hrs by sulforhodamine B assay; conditions: OVCAR-8, 48 h, read-out: Activity
SF-295 [7] = assay: Growth inhibition of human SF295 cells assessed as cell growth at 3X10'-8 M after 48 hrs by sulforhodamine B assay; conditions: SF-295, 48 h, read-out: Activity
A549 = assay: Growth inhibition of human A549/ATCC cells assessed as cell growth at 3X10'-7 M after 48 hrs by sulforhodamine B assay; conditions: A549, 48 h, read-out: Activity
UACC-257 [8] = assay: Growth inhibition of human UACC257 cells assessed as cell growth at 3X10'-5 M after 48 hrs by sulforhodamine B assay; conditions: UACC-257, 48 h, read-out: Activity
SF-268 [9] = assay: Growth inhibition of human SF268 cells assessed as cell growth at 3X10'-7 M after 48 hrs by sulforhodamine B assay; conditions: SF-268, 48 h, read-out: Activity
SF-295 [10] = assay: Growth inhibition of human SF295 cells assessed as cell growth at 3X10'-9 M after 48 hrs by sulforhodamine B assay; conditions: SF-295, 48 h, read-out: Activity
OVCAR-8 [11] = assay: Growth inhibition of human OVCAR8 cells assessed as cell growth at 3X10'-6 M after 48 hrs by sulforhodamine B assay; conditions: OVCAR-8, 48 h, read-out: Activity
SNB-75 [12] = assay: Growth inhibition of human SNB75 cells assessed as cell growth at 3X10'-7 M after 48 hrs by sulforhodamine B assay; conditions: SNB-75, 48 h, read-out: Activity
K562 = assay: Growth inhibition of human K562 cells assessed as cell growth at 3X10'-8 M after 48 hrs by sulforhodamine B assay; conditions: K562, 48 h, read-out: Activity
DU-145 = assay: Growth inhibition of human DU145 cells assessed as cell growth at 3X10'-5 M after 48 hrs by sulforhodamine B assay; conditions: DU-145, 48 h, read-out: Activity
[13] = Growth inhibition of human Hs 578T cells assessed as cell growth at 3X10'-5 M after 48 hrs by sulforhodamine B assay; conditions: read-out: Activity
Malme-3M = assay: Growth inhibition of human MALME-3M cells assessed as cell growth at 3X10'-6 M after 48 hrs by sulforhodamine B assay; conditions: read-out: Activity
SK-OV-3 = assay: Growth inhibition of human SKOV3 cells assessed as cell growth at 3X10'-9 M after 48 hrs by sulforhodamine B assay; conditions: SK-OV-3, 48 h, read-out: Activity
RPMI-8226 = assay: Growth inhibition of human RPMI8226 cells assessed as cell growth at 3X10'-7 M after 48 hrs by sulforhodamine B assay; conditions: RPMI-8226, 48 h, read-out: Activity
SK-MEL-28 = assay: Growth inhibition of human SK-MEL-28 cells assessed as cell growth at 3X10'-9 M after 48 hrs by sulforhodamine B assay; conditions: SK-MEL-28, 48 h, read-out: Activity
KM12 [14] = assay: Growth inhibition of human KM12 cells assessed as cell growth at 3X10'-5 M after 48 hrs by sulforhodamine B assay; conditions: KM12, 48 h, read-out: Activity
NCI-H460 = assay: Growth inhibition of human NCI-H460 cells assessed as cell growth at 3X10'-5 M after 48 hrs by sulforhodamine B assay; conditions: NCI-H460, 48 h, read-out: Activity
PC-3 = assay: Growth inhibition of human PC3 cells assessed as cell growth at 3X10'-5 M after 48 hrs by sulforhodamine B assay; conditions: PC-3, 48 h, read-out: Activity
KM12 [15] = assay: Growth inhibition of human KM12 cells assessed as cell growth at 3X10'-8 M after 48 hrs by sulforhodamine B assay; conditions: KM12, 48 h, read-out: Activity
NCI-H522 = assay: Growth inhibition of human NCI-H522 cells assessed as cell growth at 3X10'-9 M after 48 hrs by sulforhodamine B assay; conditions: NCI-H522, 48 h, read-out: Activity
MCF7 = assay: Growth inhibition of human MCF7 cells assessed as cell growth at 3X10'-8 M after 48 hrs by sulforhodamine B assay; conditions: MCF7, 48 h, read-out: Activity
SW-620 = assay: Growth inhibition of human SW620 cells assessed as cell growth at 3X10'-6 M after 48 hrs by sulforhodamine B assay; conditions: SW-620, 48 h, read-out: Activity
UO-31 [16] = assay: Growth inhibition of human UO31 cells assessed as cell growth at 3X10'-8 M after 48 hrs by sulforhodamine B assay; conditions: UO-31, 48 h, read-out: Activity
LOX IMVI = assay: Growth inhibition of human LOXIMVI cells assessed as cell growth at 3X10'-8 M after 48 hrs by sulforhodamine B assay; conditions: read-out: Activity
HT-29 = assay: Growth inhibition of human HT-29 cells assessed as cell growth at 3X10'-6 M after 48 hrs by sulforhodamine B assay; conditions: HT-29, 48 h, read-out: Activity
NCI-H23 = assay: Growth inhibition of human NCI-H23 cells assessed as cell growth at 3X10'-9 M after 48 hrs by sulforhodamine B assay; conditions: NCI-H23, 48 h, read-out: Activity
SN12C [17] = assay: Growth inhibition of human SN12C cells assessed as cell growth at 3X10'-5 M after 48 hrs by sulforhodamine B assay; conditions: read-out: Activity
UO-31 [18] = assay: Growth inhibition of human UO31 cells assessed as cell growth at 3X10'-7 M after 48 hrs by sulforhodamine B assay; conditions: UO-31, 48 h, read-out: Activity
UO-31 [19] = assay: Growth inhibition of human UO31 cells assessed as cell growth at 3X10'-5 M after 48 hrs by sulforhodamine B assay; conditions: UO-31, 48 h, read-out: Activity
CAKI-1 = assay: Growth inhibition of human CAKI-1 cells assessed as cell growth at 3X10'-5 M after 48 hrs by sulforhodamine B assay; conditions: CAKI-1, 48 h, read-out: Activity
SN12C [20] = assay: Growth inhibition of human SN12C cells assessed as cell growth at 3X10'-8 M after 48 hrs by sulforhodamine B assay; conditions: read-out: Activity
UACC-257 [21] = assay: Growth inhibition of human UACC257 cells assessed as cell growth at 3X10'-7 M after 48 hrs by sulforhodamine B assay; conditions: UACC-257, 48 h, read-out: Activity

Row | SMILES | growth at 5 µM (SNB-75 [1]) [%] | growth at 0.003 µM (UACC-62 [2]) [%] | growth at 0.3 µM (SR) [%] | growth at 0.03 µM [3] [%] | growth at 0.003 µM (SF-268 [4]) [%] | growth at 3 µM (UACC-62 [5]) [%] | growth at 30 µM (OVCAR-8 [6]) [%] | growth at 0.03 µM (SF-295 [7]) [%] | growth at 0.3 µM (A549) [%] | growth at 30 µM (UACC-257 [8]) [%] | growth at 0.3 µM (SF-268 [9]) [%] | growth at 0.003 µM (SF-295 [10]) [%] | growth at 3 µM (OVCAR-8 [11]) [%] | growth at 0.3 µM (SNB-75 [12]) [%] | growth at 0.03 µM (K562) [%] | growth at 30 µM (DU-145) [%] | growth at 30 µM [13] [%] | growth at 3 µM (Malme-3M) [%] | growth at 0.003 µM (SK-OV-3) [%] | growth at 0.3 µM (RPMI-8226) [%] | other results
1 | COc1cc(-c2nn(-c3cccc(NC(=O)c4cccc(C(F)(F)F)c4)c3)cc2-c2ccncc2)ccc1Cl | -2 |  |  |  |  |  |  |  |  |  |  |  |  |  |  |  |  |  |  |  | 
2 | O=C(Nc1cccc(-n2cc(-c3ccncc3)c(-c3ccc(Cl)c(O)c3)n2)c1)Nc1ccc(Cl)c(C(F)(F)F)c1 |  | 98 | 81 | 102 | 101 | -48 | -14 | 92 | 86 | -90 | 93 | 92 | -16 | 74 | 105 | -58 | -8 | -32 | 102 | 73 | growth at 0.003 µM (SK-MEL-28): 103%; growth at 30 µM (KM12 [14]): -70%; growth at 30 µM (NCI-H460): -41%; growth at 30 µM (PC-3): -19%; growth at 0.03 µM (KM12 [15]): 103%; growth at 0.003 µM (NCI-H522): 96%; growth at 0.03 µM (MCF7): 90%; growth at 3 µM (SW-620): 5%; growth at 0.03 µM (UO-31 [16]): 95%; growth at 0.03 µM (LOX IMVI): 99%; growth at 3 µM (HT-29): 21%; growth at 0.003 µM (NCI-H23): 97%; growth at 30 µM (SN12C [17]): -6%; growth at 0.3 µM (UO-31 [18]): 82%; growth at 30 µM (UO-31 [19]): -28%; growth at 30 µM (CAKI-1): -25%; growth at 0.03 µM (SN12C [20]): 94%; growth at 0.3 µM (UACC-257 [21]): 93%
3 | O=C(Nc1cccc(-n2cc(-c3ccncc3)c(-c3ccc(Cl)c(O)c3)n2)c1)Nc1cccc(C(F)(F)F)c1 |  | 98 | 100 | 97 | 95 | 33 | 7 | 99 | 93 | -18 | 96 | 94 | 31 | 85 | 92 | 9 | 11 | 37 | 98 | 90 | growth at 0.003 µM (SK-MEL-28): 103%; growth at 30 µM (KM12 [14]): 1%; growth at 30 µM (NCI-H460): -1%; growth at 30 µM (PC-3): -3%; growth at 0.03 µM (KM12 [15]): 95%; growth at 0.003 µM (NCI-H522): 95%; growth at 0.03 µM (MCF7): 96%; growth at 3 µM (SW-620): 53%; growth at 0.03 µM (UO-31 [16]): 85%; growth at 0.03 µM (LOX IMVI): 95%; growth at 3 µM (HT-29): 96%; growth at 0.003 µM (NCI-H23): 94%; growth at 30 µM (SN12C [17]): 16%; growth at 0.3 µM (UO-31 [18]): 90%; growth at 30 µM (UO-31 [19]): 11%; growth at 30 µM (CAKI-1): 2%; growth at 0.03 µM (SN12C [20]): 98%; growth at 0.3 µM (UACC-257 [21]): 92%
4 | O=C(Nc1cccc(-n2cc(-c3ccncc3)c(-c3ccc(Cl)c(O)c3)n2)c1)c1ccc(N2CCOCC2)c(C(F)(F)F)c1 | 20 |  |  |  |  |  |  |  |  |  |  |  |  |  |  |  |  |  |  |  | 
